Columns and labels:
[1] = tested on: monoaminergic neurotransmission in VTA and other brain areas; assay: Ex vivo monoamine content (HPLC-EC) in brain areas of alcohol-drinking rats after repeated DAG; set-up: species or system Rcc Han Wistar rats
Description: (§1) Male and female Rcc Han Wistar rats (8–12 weeks old at arrival; Envigo, Horst, Netherlands) were used for the alcohol drinking and locomotor activity experiments as they drink alcohol to intoxicating levels. For in vivo microdialysis studies male Wistar rats (Charles River, Calco, Italy) were used as they display robust dopamine levels in NAc shell after alcohol injection. […] All rodents were allowed to habituate to the animal facility at least one week before they entered an experiment. During housing (20 °C with 50% humidity) the rodents had free access to water and standard chow (Teklad Rodent Diet; Envigo, Madison, WI, USA). These experiments were approved by the Ethics Committee for Animal Experiments (ethical numbers: 1457/18, 3276/18, 1556/18, 3348/20; Gothenburg, Sweden) and followed the ARRIVE guidelines. The sample sizes of each experiment were based on previous experience in which statistical significance has been detected. The person who conducted the experiments, and analyzed the collected data was aware of the treatment allocation. Only preset exclusion criteria were used when analyzing the data obtained in attempts to exclude confounding factors in analyzing data. In the alcohol drinking experiments leaking bottles and low alcohol consumption (<3.0 g/kg for males; <3.5 g/kg for females) were preset exclusion criteria. The preset exclusion criterion in the ex vivo HPLC-EC, ELISA, and recombinant cell line experiments was contamination of the sample. Misplaced probes, technical difficulties, and damages to the surgery area were preset exclusion criteria for the in vivo microdialysis experiment. Intra-cage male aggression was the preset exclusion criterion for the locomotor activity and CPP experiments. To minimize tentative confounding factors, the order of treatments was stratified, with treatments being mixed for each animal cage and for each apparatus used as well as balancing the alcohol intake between future treatment groups. Although each experiment only was performed once, they were separated over different laboratory days with equal data obtained between sessions.
Individually housed rats had intermittent access to an alcohol (20%) bottle and a water bottle, three 24-h sessions per week, and only water bottles the remaining days. A reversed light/dark cycle was used, and the bottles were changed when the lights went out. First, the rats consumed alcohol for 10 weeks (baseline drinking), where the bottles and food were weighed daily and the body weight weekly. During treatments, the bottles and food were weighed at 4- and/or 24-h and the body weight was measured daily. In the first drinking experiment, the potential of DAG to reduce alcohol consumption was tested and therefore, vehicle or DAG (1 mg/kg) was acutely injected into male (n = 12) or female (n = 12) rats. The second drinking experiment was conducted to establish the effects of lower DAG doses on alcohol intake. Therefore, separate male (n = 18) or female (n = 18) rats, were acutely injected with lower DAG doses (0.5 or 0.25 mg/kg) or vehicle. The third alcohol drinking experiment evaluated the ability of repeated DAG injections to lower alcohol drinking. Therefore, additional male (n = 24) and female (n = 24) rats were injected with either vehicle or DAG (1 mg/kg) at three alcohol-drinking sessions. At the end of the third drinking session, the rats were euthanized and decapitated, and the brains were placed in a brain-slicing matrix. Brain areas central for reward (VTA, NAc shell, NAc core, LDTg, dorsal striatum, hippocampus, paraventricular thalamus, prefrontal cortex, central amygdala) were punched and stored at −80 °C. Each sample was homogenized, and then the monoamine content in the supernatant was analyzed in an HPLC-EC system as described before, allowing tentative determination of brain regions, directly or indirectly, affected by DAG.
The obtained data are normally distributed and with equal variance. […]

male mice = assay: Locomotor activity test, alcohol-induced stimulation and DAG per se, mice; type: in vivo, NMRI mice
Description: as §1, with “During housing (20 °C with 50% humidity) the rodents had free access to water and standard chow (Teklad Rodent Diet; Envigo, Madison, WI, USA). These experiments were approved by the Ethics Committee for Animal Experiments (ethical numbers: 1457/18, 3276/18, 1556/18, 3348/20; Gothenburg, Sweden) and followed the ARRIVE guidelines.” left out, “groups.” for “groups. Although each experiment only was performed once, they were separated over different laboratory days with equal data obtained between sessions.”
Alcohol was in the behavioral and neurochemical tests injected (intraperitoneally, IP) 5 min before the test.
Locomotor activity tests were conducted in ventilated and dim-lit (4 lux) open field arenas (420 × 420 × 200 mm; Med Associates Inc; Georgia, Vermont, USA). Infra-red beams detected distance traveled, number of jumps, vertical counts, average velocity, stereotypic counts, number of inner zone entries, and time spent in the inner/outer zones of each animal.
In the first test, after 60 min of habituation, male (n = 24) or female (n = 24) rats were injected with vehicle or DAG (0.5, 1.0, or 2.0 mg/kg). 15 min later the activity was monitored for another 60 min. In the second locomotor activity experiment, male mice (n = 32) were allowed to habituate for 60 min. After that, they were injected with vehicle or DAG (0.25, 0.5, or 1.0 mg/kg). After 15 min the activity was monitored for another 60 min.
Therefore, male mice were (n = 32) injected with DAG (1.0 mg/kg) or vehicle 15 min before alcohol or vehicle. The activity registration started 5 min later and was recorded for an additional 60 min. Identical locomotor activity experiments were conducted in new male mice (n = 32), where a lower dose of DAG (0.5 mg/kg) was combined with alcohol.
The data from drinking experiments were analyzed by unpaired t-test or repeated two-way ANOVA. A two-tailed unpaired t-test analyzed the ELISA, ex vivo HPLC-EC, and cFOS data. In addition, the Pearson test correlated the serum levels and the mean values of alcohol intake in rats. A one-way ANOVA with Bonferroni post hoc tests and unpaired t-test analyzed the locomotor activity and CPP data, respectively. The in vivo microdialysis experiments were evaluated by a repeated two-way ANOVA followed by the Bonferroni post hoc test.

[2] = alcohol-drinking female rats, repeated DAG n = 7 vs vehicle n = 9
[3] = alcohol-drinking male rats, repeated DAG n = 8 vs vehicle n = 7

Substance: des-acyl ghrelin (GSSFLSPEHQRVQQRKESKKPPAKLQPR; Ghrelin-28 non-acylated; UniProt Q9UBU3 24-51, looked up) [DAG, non-octanoylated form of ghrelin; purchased from Tocris (printed Tocrise Bioscience), dissolved in 0.9% NaCl]
- ex vivo DOPAC level, VTA [1, 2]: did not change the levels of D DOPAC (t14 = 0.41, P = 0.6904)
- ex vivo HVA level, VTA [1, 2]: did not change the levels of D DOPAC (t14 = 0.41, P = 0.6904), E HVA (t14 = 0.66, P = 0.5196)
- ex vivo dopamine level, VTA [1, 2]: did not change the levels of D DOPAC (t14 = 0.41, P = 0.6904), E HVA (t14 = 0.66, P = 0.5196), or F dopamine (t14 = 0.12, P = 0.9080)
- dopamine turnover, 5-HIAA, serotonin and serotonin turnover, VTA ([1]; alcohol-drinking male or female rats, repeated DAG): neither affected the dopamine turnover, 5-hydroxy indole acetic acid (5-HIAA), serotonin, nor serotonin turnover
- ex vivo noradrenaline level, VTA ([1]; alcohol-drinking male rats, repeated DAG): tended to elevate the ex vivo noradrenaline levels in this area of male rats (Supplementary Fig. 4E, P = 0.0819)
- ex vivo DOPAC level, VTA [1, 3]: increased the ex vivo levels of A DOPAC (t13 = 2.94, P = 0.0116)
- ex vivo HVA level, VTA [1, 3]: increased the ex vivo levels of A DOPAC (t13 = 2.94, P = 0.0116) and B HVA (t13 = 3.00, P = 0.0102)
- ex vivo dopamine level, VTA [1, 3]: tended to elevate the dopamine levels (t13 = 1.72, P = 0.1091)
- monoaminergic neurotransmission in other brain areas ([1]; males and females, repeated DAG, central amygdala, hippocampus, laterodorsal tegmental area, NAc core and shell, prefrontal cortex, paraventricular thalamus, striatum, data not shown): Neither in males nor females, DAG altered the monoaminergic neurotransmission
- alcohol-induced locomotor stimulation (effect of DAG) (male mice; DAG 0.5 mg/kg plus alcohol, n = 8 per group (vehicle-vehicle one removed)): reduced but did not block (P = 0.5319)
- alcohol-induced locomotor stimulation (effect of DAG) (male mice; DAG 1 mg/kg 15 min before alcohol 1.75 g/kg IP, n = 8 per group): prevented the alcohol-induced locomotor stimulation (P = 0.0305)
- locomotor activity, DAG per se (male mice; DAG 1 mg/kg without alcohol, n = 8 per group): did not alter the activity of the mice (P > 0.9999)
- locomotor activity, DAG per se, dose finding (male mice; DAG 0.25, 0.5 or 1.0 mg/kg, 60 min recording, n = 8 per group, data not shown): did not influence locomotor activity

Source: publication PMC11224403, “Des-acyl ghrelin reduces alcohol intake and alcohol-induced reward in rodents” (Translational Psychiatry, 2024)
